Laboratory results: patent US11673890B2, “N1-pyrazolospiroketone acetyl-CoA carboxylase inhibitors” (Pfizer Inc., priority 2010, dated 2023)

Columns and labels:
[1] = molecular target: T1, recombinant human ACC2 (rhACC2) (Homo sapiens, UniProt O00763, V2141I); test: recombinant hACC2 Transcreener assay (ADP detection FP); format: biochemical; conditions: 50 μM ATP, minimum of n=3
T1 construct: a full length Cytomax clone of ACC2 was purchased from Cambridge Bioscience Limited; made in house; host or cells: CHO cells (tetracycline-inducible, pcDNA5 FRT TO-TOPO)
T1 sequence (O00763 whole entry V2141I): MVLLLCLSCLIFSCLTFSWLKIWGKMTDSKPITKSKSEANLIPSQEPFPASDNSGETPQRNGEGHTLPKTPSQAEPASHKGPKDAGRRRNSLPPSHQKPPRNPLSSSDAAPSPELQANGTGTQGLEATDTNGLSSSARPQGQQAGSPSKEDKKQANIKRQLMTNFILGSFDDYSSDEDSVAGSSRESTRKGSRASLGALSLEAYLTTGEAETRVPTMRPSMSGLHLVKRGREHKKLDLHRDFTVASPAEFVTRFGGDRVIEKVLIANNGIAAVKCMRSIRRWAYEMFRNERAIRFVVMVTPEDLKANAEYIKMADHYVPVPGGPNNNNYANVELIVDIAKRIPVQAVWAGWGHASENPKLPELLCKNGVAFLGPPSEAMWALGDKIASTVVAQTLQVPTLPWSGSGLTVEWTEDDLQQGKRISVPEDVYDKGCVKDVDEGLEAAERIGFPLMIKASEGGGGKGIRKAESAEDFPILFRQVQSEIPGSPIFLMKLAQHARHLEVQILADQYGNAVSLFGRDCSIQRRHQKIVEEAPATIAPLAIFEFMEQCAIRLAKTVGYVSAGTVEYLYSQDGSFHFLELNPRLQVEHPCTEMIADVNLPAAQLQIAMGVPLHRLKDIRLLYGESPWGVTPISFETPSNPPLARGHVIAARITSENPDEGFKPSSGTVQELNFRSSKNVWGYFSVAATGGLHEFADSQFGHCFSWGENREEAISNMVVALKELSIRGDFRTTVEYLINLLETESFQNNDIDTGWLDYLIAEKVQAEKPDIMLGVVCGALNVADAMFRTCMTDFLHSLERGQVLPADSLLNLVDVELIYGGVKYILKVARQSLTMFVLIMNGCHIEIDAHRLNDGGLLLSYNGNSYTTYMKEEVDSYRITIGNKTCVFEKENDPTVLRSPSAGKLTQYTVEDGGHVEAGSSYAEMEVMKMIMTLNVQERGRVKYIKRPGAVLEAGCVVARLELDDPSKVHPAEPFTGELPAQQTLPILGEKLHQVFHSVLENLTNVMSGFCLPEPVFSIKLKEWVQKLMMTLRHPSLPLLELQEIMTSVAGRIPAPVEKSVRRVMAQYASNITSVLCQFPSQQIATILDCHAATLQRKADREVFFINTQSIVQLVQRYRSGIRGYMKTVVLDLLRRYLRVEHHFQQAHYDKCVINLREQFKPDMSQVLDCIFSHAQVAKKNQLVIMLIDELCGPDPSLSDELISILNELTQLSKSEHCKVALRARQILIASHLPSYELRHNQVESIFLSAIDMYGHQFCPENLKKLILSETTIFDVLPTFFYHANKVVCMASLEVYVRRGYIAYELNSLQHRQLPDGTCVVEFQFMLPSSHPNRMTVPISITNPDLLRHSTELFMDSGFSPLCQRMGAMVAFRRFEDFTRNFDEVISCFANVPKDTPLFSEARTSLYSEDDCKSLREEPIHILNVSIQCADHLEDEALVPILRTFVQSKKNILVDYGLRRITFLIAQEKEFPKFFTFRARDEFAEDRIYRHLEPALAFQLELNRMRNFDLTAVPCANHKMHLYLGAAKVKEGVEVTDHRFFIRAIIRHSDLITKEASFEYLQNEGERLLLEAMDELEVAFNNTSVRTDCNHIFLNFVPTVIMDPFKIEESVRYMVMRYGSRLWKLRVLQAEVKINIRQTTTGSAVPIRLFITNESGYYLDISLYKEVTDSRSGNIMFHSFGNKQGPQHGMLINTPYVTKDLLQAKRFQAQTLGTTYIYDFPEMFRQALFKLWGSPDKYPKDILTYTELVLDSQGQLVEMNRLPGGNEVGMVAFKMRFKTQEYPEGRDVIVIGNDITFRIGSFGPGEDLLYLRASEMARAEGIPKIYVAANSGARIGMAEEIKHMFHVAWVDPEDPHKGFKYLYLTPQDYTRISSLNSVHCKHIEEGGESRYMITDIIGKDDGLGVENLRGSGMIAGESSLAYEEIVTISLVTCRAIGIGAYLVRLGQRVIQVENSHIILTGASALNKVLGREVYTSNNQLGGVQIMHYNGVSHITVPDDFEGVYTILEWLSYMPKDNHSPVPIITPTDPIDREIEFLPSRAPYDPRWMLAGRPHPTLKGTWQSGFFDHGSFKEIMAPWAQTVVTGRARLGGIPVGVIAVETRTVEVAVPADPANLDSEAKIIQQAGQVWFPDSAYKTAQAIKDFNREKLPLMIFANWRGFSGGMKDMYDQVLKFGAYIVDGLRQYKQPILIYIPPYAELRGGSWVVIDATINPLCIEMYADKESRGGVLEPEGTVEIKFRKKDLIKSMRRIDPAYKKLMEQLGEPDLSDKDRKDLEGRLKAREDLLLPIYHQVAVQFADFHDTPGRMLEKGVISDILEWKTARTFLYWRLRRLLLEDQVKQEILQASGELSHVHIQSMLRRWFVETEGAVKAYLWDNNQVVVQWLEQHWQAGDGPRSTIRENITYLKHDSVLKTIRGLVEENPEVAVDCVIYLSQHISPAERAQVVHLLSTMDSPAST

[2] = molecular target: T2, recombinant human ACC1 (rhACC1) (Homo sapiens, UniProt Q13085, DEL44-44); test: recombinant hACC1 Transcreener assay (ADP detection FP); format: biochemical; conditions: recombinant hACC1 Transcreener assay, 50 μM ATP, minimum of n=3; read-out: hACC1
T2 construct: infected with recombinant baculovirus containing full length human ACC1 cDNA; made in house; host or cells: SF9 insect cells (baculovirus)

Row | SMILES | IC50 [1] | IC50 [2]
1 | CC(C)n1ncc2c1C(=O)CC1(CCN(C(=O)c3nc4cc(-c5cccc(C(=O)O)c5)ccc4[nH]3)CC1)C2 [Example 47, 3-{2-[(1-isopropyl-7-oxo-1,4,6,7-tetrahydro-1′H-spiro[indazole-5,4′-piperidin]-1′-yl)carbonyl]-1H-benzimidazol-5-yl}benzoic acid] | 25.7 nM | 32.5 nM
2 | CC(C)n1ncc2c1C(=O)CC1(CCN(C(=O)c3ccc(-c4cccc(-c5nnn[nH]5)c4)cc3)CC1)C2 [Example 48, 1-isopropyl-1′-{[3′-(1H-tetrazol-5-yl)biphenyl-4-yl]carbonyl}-1,4-dihydrospiro[indazole-5,4′-piperidin]-7(6H)-one] | 28 nM | 59.5 nM
3 | CC(C)(C)n1ncc2c1C(=O)CC1(CCN(C(=O)c3ccc(-c4cccc(-c5nnn[nH]5)c4)cc3)CC1)C2 [Example 49, 1-tert-butyl-1′-{[3′-(1H-tetrazol-5-yl)biphenyl-4-yl]carbonyl}-1,4-dihydrospiro[indazole-5,4′-piperidin]-7(6H)-one] | 24.7 nM | 54.7 nM
